From patent publication US20070167488A1, “Novel therapeutic use” (Leo Pharma A/S, priority 2003, published 2007)

Test system: IL-2
Test: Inhibition of IL-2 production in phytohemagglutinin-activated human PBMCs (sandwich ELISA)
Format: cell-based
Conditions: Homo sapiens, PBMC, 46 h, approximately 46 hours, read-out: IL-2 pIC50 (converted)
Method: Peripheral blood mononuclear cells (PBMCs) were isolated from human blood. The lymphocytes, a fraction of the PBMCs, were activated to secrete IL-2 using the polyclonal mitogen phytohemagglutinin. The test compounds were added in concentrations from 10^−5 to 10^−10, and the cells (10^6/ml) were incubated in microtiter wells at 37° C. for approximately 46 hours.
After 46 hours the cells were centrifuged down for 25 minutes at 1000×g and the supernatants were transferred to transferred to microtiter wells precoated with a monoclonal antibody against human IL-2. The IL-2 concentration in the supernatants was determined by a sandwich ELISA. Microtiter plates were coated (1 μg/ml) with a monoclonal antibody (R&D, UK) against human IL-2, washed 4 times, blocked with 1% casein buffer for 2 hours and washed 2 times. 100 μl sample was added to each well and incubated overnight. All samples were tested in triplicate. 100 μl IL-2 standards (R&D, UK) at a concentration range of 10000-0 pg/ml were tested in triplicate. After incubation the plates were washed and incubated with biotinylated polyclonal secondary antibody against human IL-2 (R&D, UK) for 45 minutes and thereafter washed 4 times. 100 μl enzyme conjugate, horseradish peroxidase conjugated streptavidin diluted 1:4000 (Zymed, USA), was added to all wells and incubated for 30 minutes. 100 μl OPD substrate (KEM EN TEC-DK) was added and the enzyme/substrate reaction stopped after 10 minutes at room temperature with 50 μl 1 M H2SO4. The colour development (optical density—OD) was determined at 492 nm on an ELISA reader and the background OD at 620 nm subtracted).

Structure (SMILES) | IC50 [µM]
O=C1Nc2ccccc2/C1=C/c1cc(Br)ccc1O | 0.02
COc1ccc(OC)c(/C=C2/C(=O)Nc3ccc(Cl)cc32)c1 | 0.00631
O=C(O)Cn1cc(/C=C2\C(=O)Nc3ccccc32)c2ccccc21 [drawing 229] | 0.0398
N#Cc1cccc2c1NC(=O)/C2=C\c1c[nH]c2ccccc12 | 0.001
CCOC(=O)CCCCCNC(=O)c1cc(C)c(/C=C2\C(=O)Nc3ccccc32)[nH]1 | 0.0794
O=C1Nc2ccc(F)c(F)c2/C1=C/c1c[nH]c2ccccc12 | 0.00398
Cc1cc(/C=C2/C(=O)Nc3ccccc32)oc1C | 0.00398
O=C1Nc2cc(Cl)ccc2/C1=C/c1c[nH]c2ccccc12 | 0.0631
CC(C)(C)OC(=O)N1C(=O)/C(=C\c2c[nH]c3ccccc23)c2ccccc21 | 0.001
O=C1Nc2ccccc2/C1=C\c1cc(Cl)cc(Cl)c1OCc1ccc2ccccc2n1 | 0.1
O=C1Nc2ccccc2/C1=C\c1cc(O)ccc1O | 0.1
COc1ccc2c(/C=C3\C(=O)Nc4ccccc43)cn(C)c2c1 | 0.00631
O=C1Nc2ccccc2/C1=C/c1c[nH]c2ccccc12 | 0.001
O=C1Nc2ccccc2/C1=C\c1cn(Cc2cnc(Cl)s2)c2ccccc12 | 0.01
Cc1cc(CO)[nH]c1/C=C1\C(=O)Nc2ccccc21 [drawing 144] | 0.0398
O=C1Nc2ccccc2/C1=C\c1ccc([N+](=O)[O-])s1 | 0.0316
O=C1Nc2ccc(O)cc2/C1=C/c1c[nH]c2ccccc12 | 0.0794
O=C1Nc2ccccc2/C1=C/c1c[nH]c2cccc(OCc3ccccc3)c12 | 0.1
O=C1Nc2ccccc2/C1=C/c1cn(Cc2ccccc2)c2ccccc12 | 0.00398
Cc1cccc(/C=C2\C(=O)Nc3ccccc32)c1 | 0.631
COc1cc[nH]c1/C=C1\C(=O)Nc2cccc(Cl)c21 | 0.0001

More lines, now with the values ahead:

IC50 [µM] | Structure (SMILES)
0.398 | Cc1cccc(COc2ccc(/C=C3/C(=O)Nc4ccccc43)cc2)n1
0.631 | COc1ccc(OC)c(/C=C2/C(=O)Nc3ccc(C(F)(F)F)cc32)c1
0.002 | O=C1Nc2c(F)cc(F)cc2/C1=C/c1c[nH]c2ccccc12
0.1 | Cn1c(/C=C2/C(=O)Nc3ccccc32)cc2ccccc21
0.02 | O=C1Nc2cc(C(F)(F)F)ccc2/C1=C/c1c[nH]c2ccccc12
0.0316 | Cc1cc(C(=O)OCc2ccncc2)[nH]c1/C=C1\C(=O)Nc2ccccc21
0.002 | COc1cc(OC)c(OC)cc1/C=C1/C(=O)Nc2ccccc21
0.02 | COc1cc[nH]c1/C=C1\C(=O)Nc2ccccc21
0.1 | COc1ccc(OC)c(/C=C2/C(=O)Nc3ccc(Br)cc32)c1
0.1 | O=C1Nc2ccccc2/C1=C\c1c(-c2ccccc2)[nH]c2ccccc12
0.001 | O=C1Nc2ccccc2/C1=C\c1ccc(Cl)c(Cl)c1
0.0631 | O=C1Nc2ccccc2/C1=C/c1ccccc1F
0.2 | COc1ccc(O)c(/C=C2\C(=O)Nc3ccccc32)c1
0.02 | COc1ccc(OC)c(/C=C2\C(=O)N(OC)c3ccccc32)c1
0.2 | COc1ccc(OC)c(/C=C2/C(=O)Nc3ccc(O)cc32)c1
0.00398 | COc1ccc(OC)c(/C=C2/C(=O)Nc3ccccc32)c1 [drawing 114]
0.02 | Cc1cc(C)c(/C(C(=O)OCc2ccccc2)=C2\C(=O)Nc3ccccc32)[nH]1
0.631 | O=C1Nc2ccccc2/C1=C/c1ccc2ccccc2c1
0.0398 | Cc1cc(C(=O)NCCc2c[nH]c3ccccc23)[nH]c1/C=C1\C(=O)Nc2ccccc21
0.0631 | COc1ccc(F)c(/C=C2/C(=O)Nc3ccccc32)c1
0.2 | CCn1c2ccccc2c2cc(/C=C3/C(=O)Nc4ccccc43)ccc21
0.0501 | COc1cc[nH]c1/C=C1\C(=O)Nc2ccc(Cl)cc21
0.002 | O=C1Nc2ccc(Br)cc2/C1=C/c1c[nH]c2ccccc12
0.0316 | O=C1Nc2ccccc2/C1=C\c1cc(-c2ccccc2)cs1
0.1 | Cc1cc(C)c(/C=C2\C(=O)Nc3ccc(F)cc32)[nH]1

Same assay, conditions: approximately 46 hours

IL-2 pIC50 | Structure (SMILES)
7.2 | COc1ccc(OC)c(/C=C2/C(=O)Nc3ccc(N)cc32)c1.CS(=O)(=O)O
